From patent US7632930B2, “Oligosaccharide derivative” (Sankyo Company Limited, priority 2003, dated 2009)
pIC50: −log10 of the molar value.

Key:
[1] = molecular target: T1, human pancreatic α-amylase (HPA) (Homo sapiens, UniProt P04746); assay: α-Amylase inhibitory action (blue starch, Neo-Amylase Test); format: biochemical; settings: final concentration required to inhibit the activity of the HPA solution by 50%; 37° C.
T1 construct: purchased International Reagents Caribzyme AMY
T1 sequence (P04746 16-511): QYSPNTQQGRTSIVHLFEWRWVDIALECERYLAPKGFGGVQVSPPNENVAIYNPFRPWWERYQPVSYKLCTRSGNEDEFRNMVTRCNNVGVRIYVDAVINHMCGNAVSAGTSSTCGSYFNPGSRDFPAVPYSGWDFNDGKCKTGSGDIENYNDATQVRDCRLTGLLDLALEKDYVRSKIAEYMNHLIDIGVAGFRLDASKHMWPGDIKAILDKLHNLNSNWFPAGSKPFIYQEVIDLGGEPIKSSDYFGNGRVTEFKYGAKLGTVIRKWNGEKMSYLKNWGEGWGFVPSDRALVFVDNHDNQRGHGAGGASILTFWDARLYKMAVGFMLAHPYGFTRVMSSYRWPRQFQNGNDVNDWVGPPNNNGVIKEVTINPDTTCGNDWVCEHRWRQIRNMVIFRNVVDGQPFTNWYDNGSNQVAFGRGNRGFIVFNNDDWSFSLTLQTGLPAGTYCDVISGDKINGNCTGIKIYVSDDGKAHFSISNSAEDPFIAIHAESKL

normal mice (ddY mice) = assay: Postprandial hyperglycemia inhibitory action (cornstarch loading); format: in vivo; settings: ddY mice fasted 20 hours; oral 0.3 mg (test compound)/2 g (cornstarch)/kg; AUC of increase in blood glucose levels, 0.5-3 hours after dosing, vs control group
Experimental: Commercially available normal mice (ddY mice, males, age 8 weeks at the time of testing, supplied by Japan SLC).
(§1) (2) Experimental Methods and Results
For the dose group, a test compound and commercially available cornstarch were mixed well with 0.5% carboxymethyl cellulose to prepare a suspension that was orally administered at 0.3 mg (test compound)/2 g (cornstarch)/kg (body weight) to five mice that had been fasted in advance for 20 hours. The control group was administered with a similar suspension in the same manner with the exception of not containing the test compound.
Blood glucose levels were measured using a blood glucose analyzer (Glucoloader GXT, A & T). Inhibition rate(%)=[1−(dose group AUC/control group blood glucose increase AUC)]×100

[2] = tested on: genetically obese diabetic mice (C57BL/KsJ-db/db mice); assay: Blood glucose lowering action in genetically obese diabetic mice; format: in vivo; settings: 0.005% (w/w) in diet, freely ingested for 1 week, vs control group
Source text: Commercially available, genetically obese diabetic mice (C57BL/KsJ-db/db mice, males, age 16 weeks at the time of testing, supplied by Clea Japan).
as §1
A test compound was mixed into a refined laboratory animal diet (carbohydrate content: 65.95% (w/w), Oriental Yeast) to a test compound concentration of 0.005% (w/w) and allowed to be freely ingested by diabetic mice for 1 week in groups of 5 mice per group. A control group was allowed similar unrestricted access to the same feed with the exception of not containing the test compound.
Blood glucose levels were measured before the start of dosing and one week after the start of dosing. Blood samples were collected from a tail vein and blood glucose levels were measured using a blood glucose analyzer (Glucoloader GXT, A & T) to calculate the blood glucose lowering rate (%) according to the following formula. Blood glucose lowering rate(%)=[1−(compound dose group blood glucose level/control group blood glucose level)]×100

SMILES	pIC50 [1]	Inhibition Rate (normal mice (ddY mice)) [%]	Blood Glucose Lowering Rate [2] [%]
C[C@H]1O[C@H](O[C@H]2[C@H](O)[C@@H](O)[C@H](O[C@H]3[C@H](O)CN[C@@H]3CO)O[C@@H]2CO)[C@H](O)[C@@H](O)[C@@H]1O [Example 13, (2R,3R,4R)-4-Hydroxy-2-hydroxymethyl-pyrrolidin-3-yl 4-O-(6-deoxy-α-D-glucopyranosyl)-β-D-glucopyranoside]	5.04		
C[C@H]1O[C@@H](O[C@H]2[C@H](O)[C@@H](O)[C@@H](O[C@H]3[C@H](O)CN[C@@H]3CO)O[C@@H]2CO)[C@H](O)[C@@H](O)[C@@H]1O [Example 2, (2R,3R,4R)-4-Hydroxy-2-(hydroxymethyl)pyrrolidin-3-yl 4-O-(6-deoxy-β-D-glucopyranosyl)-α-D-glucopyranoside]	6.34	64	47
C[C@H]1O[C@@H](O[C@H]2[C@H](O)[C@@H](O)[C@@H](O[C@H]3[C@H](O)[C@@H](O)[C@H](N)[C@@H]3CO)O[C@@H]2CO)[C@H](O)[C@@H](O)[C@@H]1O [Example 15, (1R,2S,3R,4R,5R)-1-Amino-2,3-dihydroxy-5-hydroxymethyl-cyclopent-4-yl 4-O-(6-deoxy-β-D-glucopyranosyl)-α-D-glucopyranoside]	5.90		
C[C@H]1O[C@@H](O[C@H]2[C@H](O)[C@@H](O)[C@@H](O[C@H]3[C@H](O)[C@@H](CO)N[C@@H]3CO)O[C@@H]2CO)[C@H](O)[C@@H](O)[C@@H]1O [Example 7, (2R,3R,4R,5R)-2,5-Dihydroxymethyl-4-hydroxypyrrolidin-3-yl 4-O-(6-deoxy-β-D-glucopyranosyl)-α-D-glucopyranoside]	5.07		

The remaining compounds from weak to strong by pIC50 [1], led by results:

pIC50 [1]	SMILES	Inhibition Rate (normal mice (ddY mice)) [%]	Blood Glucose Lowering Rate [2] [%]
5.67	C[C@H]1O[C@H](O[C@H]2[C@H](O)[C@@H](O)[C@@H](O[C@H]3[C@H](O)[C@@H](O)[C@H](N)[C@@H]3CO)O[C@@H]2CO)[C@H](O)[C@@H](O)[C@@H]1O [Example 14, (1R,2S,3R,4R,5R)-1-Amino-2,3-dihydroxy-5-hydroxymethyl-cyclopent-4-yl 4-O-(6-deoxy-α-D-glucopyranosyl)-α-D-glucopyranoside]		
5.80	C[C@H]1O[C@H](O[C@H]2[C@H](O)[C@@H](O)[C@@H](O[C@H]3[C@H](O)CN[C@@H]3CO)O[C@@H]2CO)[C@H](O)[C@@H](O)[C@@H]1O [Example 1, (2R,3R,4R)-4-Hydroxy-2-(hydroxymethyl)pyrrolidin-3-yl 4-O-(6-deoxy-α-D-glucopyranosyl)-α-D-glucopyranoside]		
6.07	COC[C@H]1O[C@@H](O[C@H]2[C@H](O)[C@@H](O)[C@@H](O[C@H]3[C@H](O)CN[C@@H]3CO)O[C@@H]2CO)[C@H](O)[C@@H](O)[C@@H]1O [Example 8, (2R,3R,4R)-4-Hydroxy-2-hydroxymethyl-pyrrolidin-3-yl 4-O-(6-methoxy-6-deoxy-β-D-glucopyranosyl)-D-glucopyranoside]		
